# Experiments:
# [1] = system: A549 (human lung cancer cells); experiment: MTT cell growth inhibition, 72 h, A549; assay type: cell-based; conditions: A549, 72 h, read-out: A549 (GI50)
# Method: (§1) A549 (human lung cancer cells), MCF-7 (human breast cancer cells), MDA-MB-231 (human breast cancer cells) and MDA-MB-468 cells (human breast cancer cells) were maintained in Dulbecco's modified Eagle medium (DMEM, Invitrogen, Carlsbad, Calif.) supplemented with 10% (v/v) fetal calf serum (Sigma, St. Louis, Mo.), 10 μg/mL penicillin and 10 μg/mL streptomycin (Invitrogen, Carlsbad, Calif.) at 37° C. under 5% CO2. On the day of experiment, different concentrations of the drugs (final concentration 10^−8-10^−4 M) in duplicates were added to the cells and the cells were further incubated for 72 h. Then, the number of live cells was quantified by 3-(4,5-dimethyl-2-thiazolyl)-2,5-diphenyl-2H-tetrazolium bromide (MTT reagent, Sigma, St. Louis, Mo.).
# (§2) The amount of reduced MTT formazan generated by live cells was determined by its absorbance at 570 nm after subtracting the background absorbance at 690 nm. The percent of cell growth was expressed as (A570(treated)−A570(initial))/(A570(vehicle treated)−A570(initial))*100, where A570(initial) represents initial cell population when drugs are added. The GI50 were derived from non-linear regression analysis of the dose-response curve using Prism 4.0 (GraphPad). […] Data were presented as mean±SD of at least two measurements in duplicates unless noted.
# [2] = system: MCF-7 (human breast cancer cells); experiment: MTT cell growth inhibition, 72 h, MCF-7; assay type: cell-based; conditions: MCF7, 72 h, read-out: MCF-7 (GI50)
# Method: as §1, §2
# [3] = system: MDA-MB-231 (human breast cancer cells); experiment: MTT cell growth inhibition, 72 h, MDA-MB-231; assay type: cell-based; conditions: MDA-MB-231, 72 h, read-out: MDA-MB-231 (GI50)
# Method: as §1, §2
# [4] = system: MDA-MB-468 cells (human breast cancer cells); experiment: MTT cell growth inhibition, 72 h, MDA-MB-468; assay type: cell-based; conditions: MDA-MB-468, 72 h, read-out: MDA-MB-468 (GI50)
# Method: as §1, §2
# [5] = system: CREB-mediated gene transcription; experiment: CREB reporter (pCRE-RLuc) assay in HEK 293T cells, forskolin-stimulated; assay type: cell-based
# Method: HEK293T cells in a 10-cm plate were transfected with pCRE-RLuc (6.0 μg) using Lipofectamine™ 2000 (Invitrogen, Carlsbad, Calif.) according to manufacturer's protocol. After 3 h, the transfected cells were collected and replated into 96-well plates (1-2×10^4 cells/well). The cells were allowed to attach to the bottom of the wells for overnight, when compounds of different concentrations were added to the cells. Forskolin (final concentration of 10 μM, LC Laboratories, Woburn, Mass.) was added 30 min after the addition of the compounds. The cells were then incubated at 37° C. for 5 h. The media in the wells were removed and the cells were then lysed in 30 μL of 1×Renilla luciferase lysis buffer (Promega, Madison, Wis.). To measure Renilla luciferase activity, five μL of the lysate was combined with 30 μL of benzyl-coelenterazine (Nanolight, Pinetop, Ariz.) solution in PBS (pH 7.4, 10 μg/mL). The sample protein concentration was determined by Dye Reagent Concentrate (Bio-Rad, Hercules, Calif.). The Renilla luciferase activity was normalized to protein content in each well and expressed as relative luciferase unit/μg protein (RLU/μg protein). The IC50 was derived from non-linear regression analysis of the RLU/μg protein-concentration curve in Prism 5.0 (La Jolla, Calif.).
# KIX-KID = target: T1, KIX-KID (Homo sapiens, UniProt Q92793); experiment: KIX-KID inhibition, split Renilla luciferase complementation (RLucC-KIX and KID-RLucN); assay type: binding; conditions: 4° C., 24 h
# T1 construct: made in house
# T1 sequence (Q92793 587-666 limits assumed): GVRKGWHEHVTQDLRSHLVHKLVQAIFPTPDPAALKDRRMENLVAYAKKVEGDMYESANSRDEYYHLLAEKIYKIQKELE
# Method: RLucC-KIX (15 ng) and KID-RLucN-containing cell lysates (0.5 mg) were mixed together in Renilla luciferase lysis buffer (Promega, Madison, Wis.) in the presence of different concentrations of compounds. The final volume of the incubation mixture is 30 μL. The mixture was incubated at 4° C. for 24 h. Then Renilla luciferase activity was measured by combining 5 μL of incubation mixture with 30 μL of coelenterazine solution in PBS (pH 7.4, 10 μg/mL).
# [6] = Maximum tolerated dose of Compound 4 (body weight); assay type: in vivo
# Method: The maximum tolerated dose (MTD) of compound 4 was evaluated in nude mice. In this study 4 groups were established, each with five mice per group. The compound was formulated in a suspension of 5% Tween-80/H2O. Compound 4 was administered orally at dose levels of 120, 60, and 30 mg/kg as QD for five days. The body weight was measured daily for a total of 11 days.
structure (smiles),measurement,setting,value
NCCCOc1cc2ccccc2cc1C(=O)NCCCOc1cc2ccccc2cc1C(=O)Nc1ccc(Cl)cc1O [Compound 4],GI50,[1],0.3 µM
same,GI50,[2],0.14 ± 0.029 µM
same,GI50,[3],0.23 ± 0.006 µM
same,GI50,[4],0.21 ± 0.071 µM
same,CREB-mediated gene transcription in HEK 293T cells (in words),[5]; HEK 293T cells,inhibited
same,IC50,"[5]; Homo sapiens, HEK-293T, 5 h, read-out: CREB reporter inhibition (IC50)",2.22 ± 0.38 µM
same,IC50,KIX-KID,2.54 ± 0.28 µM
same,effect on mouse body weight,"[6]; PO 120, 60, 30 mg/kg QD for five days, body weight 11 days",no different from vehicle
same,tolerability,"[6]; doses as high as 120 mg/kg per os, QD for five days",well-tolerated

# — patent US9073820B2, “Pharmaceutical compositions comprising napthamides” (OREGON HEALTH & SCIENCE UNIVERSITY, priority 2011, dated 2015)
